Measured values from patent US11883407B2, “Medicament for the treatment of chronic cough” (Shionogi & Co., Ltd., priority 2018, dated 2024).

Legend:
[1] = Phase II clinical trial: treatment-related and taste-related adverse events; format: in vivo, human
Description: (§1) The trial was conducted as a placebo-controlled, multicenter, randomized, double-blind, cross-over comparative study. The study consists of a screening phase (1 to 4 weeks), a first treatment phase (15 days), a drug holiday (2 to 3 weeks), a second treatment phase (15 days) and a follow-up phase (1 week).
(§2) Subjects (20 females, 11 males, mean age of 50.0 years) were randomly assigned to either the group receiving the compound according to Formula (I) first or the group receiving the placebo first. The subjects in the group receiving the compound according to Formula (I) first received orally tablets containing 150 mg of the compound according to Formula (I) (50 mg, 3 tablets), and the subjects in the group receiving the placebo first received orally placebo tablets (3 tablets), from the day following the first treatment phase once daily in the morning for 2 weeks.
Next, the incidence of taste-related adverse events and side effects observed in the Phase II clinical trial is shown in Table 6.
Here, the incidence of taste-related adverse events in Test Example 6 was examined. In this study, the compound represented by Formula (I) and the corresponding placebo were used as the investigational drugs. As the study design, a cross-over design consisting of two treatment phases was used. Each subject was assigned to either the treatment group taking 150 mg per day of the compound represented by Formula (I) during the first treatment phase and the placebo during the second treatment phase, or the treatment group taking the placebo during the first treatment phase and 150 mg per day of the compound represented by Formula (I) during the second treatment phase. The safety analysis population in this study was 31 subjects, all of whom were taking the compound represented by Formula (I) and the placebo. Among them, dysgeusia occurred in 1 subject (1/31, 3.2%) and hypogeusia occurred in another subject (1/31, 3.2%) when taking the compound represented by Formula (I). […] Therefore, taste-related adverse events occurred in 2 subjects (2/31, 6.5%). No taste-related adverse events were observed when taking the placebo.
Based on the above results, for the proportion of subjects who experienced any of the taste-related adverse events, the study design of each study was taken into account, and as the difference between each investigational drug and placebo, the mean of differences of incidence in the same subject between the treatments and the two-sided 95% confidence interval thereof were calculated for Test Example 6, and the difference of incidence between the Gefapixant 50 mg treatment group and the placebo treatment group and the two-sided 95% confidence interval thereof were calculated for the study MK-7264-012.

clinical = conditions: human, plasma, oral
[2] = Phase I repeat dose study (safety, tolerability); format: in vivo, human
[3] = tested on: patients with refractory/unexplained chronic cough; test: Phase II double-blind cross-over comparative study: cough frequency and Leicester Cough Questionnaire; format: in vivo, human
Description: A Phase II double-blind cross-over comparative study was conducted in patients with refractory/unexplained chronic cough.
In patients with refractory/unexplained chronic cough, the placebo-adjusted change from baseline in the number of coughs per hour during daytime (7 am to 7:59 pm, which means right before 8:00 pm) after 2 weeks of administration of the compound represented by Formula (I), and its significance were evaluated. Similarly, the placebo-adjusted change from baseline in the number of coughs per hour in 24 hours after administration of the compound represented by Formula (I) and its significance were also evaluated.
The placebo-adjusted change is defined by the following equation.
as §1, §2
(For the number of coughs per hour during daytime in each of the first and second treatment phases, the mixed effect model was applied, with the common logarithms of the ratio to the baseline after 2 weeks of administration as the responses, the investigational drugs, the administration groups (group receiving the compound represented by Formula (I) first and group receiving the placebo first), and the phases as the fixed effects, the individuals as the random effects, and the common logarithms of the number of coughs per hour at baseline as the covariates.) (Results) A comparison (full analysis population) of the change in the number of coughs per hour in 24 hours is shown in Table 4.
(For the number of coughs per hour in 24 hours in each of the first and second treatment phases, the mixed effect model was applied, with the common logarithms of the ratio to the baseline after 2 weeks of administration as the responses, the investigational drugs, administration groups (group receiving the compound represented by Formula (I) first and group receiving the placebo first), and phases as the fixed effects, the individuals as the random effects, and the common logarithms of the number of coughs per hour at baseline as the covariates.) (Results) A comparison (full analysis population) of the total change in the sum of the three domains of the Leicester Cough Questionnaire [Japanese version] is shown in Table 5.
(For the change from baseline in the total score of the three domains of the Leicester Cough Questionnaire [Japanese version] at the end or discontinuation of each of the first and second treatment phases, the mixed effect model was applied, with the changes from the baseline as the responses, the investigational drugs, phases, and administration groups (group receiving the compound represented by Formula (I) first and group receiving the placebo first) as the fixed effects, the individuals as the random effects, and the total scores of the three domains of the Leicester Cough Questionnaire [Japanese version] at baseline as the covariates.)

[4] = 150 mg once daily, 2 weeks, from baseline, full analysis population
[5] = 150 mg once daily, 2 weeks, full analysis population

SMILES: C[C@@H](Cn1c(=O)[nH]/c(=N\c2ccc(Oc3ccccn3)cc2)n(Cc2ccc(Cl)cc2)c1=O)C(=O)O [compound represented by Formula (I), (2S)-3-(3-[(4-Chlorophenyl)methyl]-2,6-dioxo-4-{[4-(pyridin-2-yloxy)phenyl]amino}-3,6-dihydro-1,3,5-triazin-1(2H)-yl)-2-methyl-propanoic acid]
- Any Treatment-related AEs, number of events ([1]; 150 mg once daily, N = 31): (4)
- Drug-induced liver injury, number of events ([1]; 150 mg once daily, N = 31): (1)
- Drug-induced liver injury, patients ([1]; 150 mg once daily, N = 31): 1 (3.2) n (%)
- Dysgeusia, number of events ([1]; 150 mg once daily, N = 31): (1)
- Dysgeusia, patients ([1]; 150 mg once daily, N = 31): 1 (3.2) n (%)
- Gastrointestinal disorders, number of events ([1]; 150 mg once daily, N = 31): (1)
- Gastrointestinal disorders, patients ([1]; 150 mg once daily, N = 31): 1 (3.2) n (%)
- Hepatobiliary disorders, number of events ([1]; 150 mg once daily, N = 31): (1)
- Hepatobiliary disorders, patients ([1]; 150 mg once daily, N = 31): 1 (3.2) n (%)
- Hypoaesthesia oral, number of events ([1]; 150 mg once daily, N = 31): (1)
- Hypoaesthesia oral, patients ([1]; 150 mg once daily, N = 31): 1 (3.2) n (%)
- Hypogeusia, number of events ([1]; 150 mg once daily, N = 31): (1)
- Nervous system disorders, number of events ([1]; 150 mg once daily, N = 31): (2)
- Nervous system disorders, patients ([1]; 150 mg once daily, N = 31): 2 (6.5) n (%)
- Patients with any Treatment-related AEs ([1]; 150 mg once daily, N = 31): 4 (12.9) n (%)
- hypogeusia, patients ([1]; 150 mg once daily, N = 31): 1 (3.2) n (%)
- severity of taste-related adverse events ([1]; 150 mg per day): both were mild
- ageusia ([1]; 150 mg per day, 31 subjects): No ageusia was observed
- dysgeusia (taste change), patients ([1]; 150 mg per day, 31 subjects): 3.2%
- hypogeusia, patients ([1]; 150 mg per day, 31 subjects): 3.2%
- number of subjects with taste-related adverse events ([1]; 150 mg per day, 31 subjects): 2 subjects
- taste-related adverse events, patients ([1]; 150 mg per day, 31 subjects): 6.5%
- Difference of incidence of any of the taste-related adverse events (drug − placebo) ([1]; 150 mg, mean difference between treatments in the same subject): 6.5%
- concentration at 24 h (clinical; 3 mg): 15.2 ng/mL
- concentration at 24 h (clinical; 10 mg): 50.7 ng/mL
- concentration at 24 h (clinical; 30 mg): 134 ng/mL
- concentration at 24 h (clinical; 100 mg): 424 ng/mL
- concentration at 24 h (clinical; 300 mg): 1840 ng/mL
- concentration at 24 h (clinical; 450 mg): 2680 ng/mL
- dysgeusia or any taste-related disorder ([2]; 150 and 300 mg once daily for 2 weeks): no dysgeusia or any taste-related disorder was observed
- deaths, serious adverse events, adverse events leading to discontinuation of administration ([2]; any administration group, healthy adult males): no deaths, serious adverse events or adverse events leading to discontinuation of administration
- Drug differences, total score of the three domains of the Leicester Cough Questionnaire ([3]; 150 mg once daily vs placebo): 1.40
- difference between investigational drug groups in total score of the three domains of the Leicester Cough Questionnaire ([3]; 150 mg once daily vs placebo, significant difference): 1.40 points
- placebo-adjusted rate of decrease in the number of coughs per hour during daytime ([3]; 150 mg once daily, 2 weeks): 31.6%
- Estimated amount of change, total score of the three domains of the Leicester Cough Questionnaire ([3]; 150 mg once daily, 2 weeks, from baseline): 2.46
- Estimated rate of change in number of coughs per hour during daytime [3, 4]: −54.1%
- Estimated rate of change in number of coughs per hour in 24 hours [3, 4]: −52.6%
- Rate of change adjusted by placebo, number of coughs per hour during daytime [3, 5]: −31.6%
- Rate of change adjusted by placebo, number of coughs per hour in 24 hours [3, 5]: −30.9%
- placebo-adjusted rate of decrease in the number of coughs per hour in 24 hours ([3]; 150 mg once daily, 2 weeks, significant difference): 30.9%
